The test system of experiment [1] is mature osteoclasts. The experiment is described as follows: Cell-death (apoptosis) inducing activity on mature osteoclasts, number of TRAP-stained multinuclear cells. The settings on record: Mus musculus, Osteoclast; RAW264-derived mature osteoclasts, 24 hours incubation, TRAP staining; read-out: ED50 level of cell-death inducing activity to mature osteoclasts, Number of cells. In kind it is cell-based, mouse. As to the method:
Using 29 different reveromycin A derivatives synthesized as described above, the cell-death inducing activities on the mature osteoclasts and undifferentiated macrophage-like cells derived from a mouse (RAW264 cells) were examined, respectively. The RAW264 cells, a mouse-macrophage cell line, were suspended in a 10% FBS-αMEM (manufactured by Gibco BRL Co., Ltd.) and then 12,000 cells/100 μl were inoculated in a 96-well plate. After 1-hour incubation, 100 μl of a culture medium containing RANKL ([…]) and PD98059 (40 μM) were added (final concentration: RANKL […] and PD98059 20 μM) and then incubated for 4 days to allow the differentiation of the cells to mature osteoclasts (J. Biol. Chem. Vol. 277, pp. 47366-47372 (2002)). Furthermore, on the second day of the culture, the half of the culture medium was replaced with new one. From each well of the plate where the cells were differentiated to the mature osteoclasts, 100 μl/well of the culture medium was removed. […] The apoptosis inducing activity was confirmed by the observation of agglutination of nuclei stained with 10 μM Hoechst 33258 for 10-minututes.

For experiment [2], the system named is undifferentiated RAW264 cells. The experiment is described as follows: Cell-death inducing activity on undifferentiated RAW264 cells, MTT method. In kind it is cell-based, mouse. The settings on record: Mus musculus, RAW264.7; 24 hours incubation, MTT; read-out: ED50 level of cell-death inducing activity to undifferentiated RAW264 cells, MTT. As to the method:
The cell-death inducing activities to the undifferentiated RAW264 cells were investigated by the MTT method (J. Immunol. Methods, Vol. 65, pp 55-63 (1983). The RAW 264 cells were plated on a 96-well plate at a density of 40,000 cells/100 μl and then incubated for 24 hours. After the 24-hour incubation, 50 μl of a culture medium containing a three-fold concentration of the drug was added and then incubated for 24 hours to investigate the cell-death inducing activity. Two hours before the measurement of the cell-death inducing activity, 15 μl of 0.5% MTT-PBS (phosphate buffer saline) was added and incubated. After that, the residue from which the culture solution was removed was dissolved in 100 μl of DMSO (dimethyl sulfoxide) and the absorbance at 570 nm (a reference wave length of 630 nm) was measured, followed by calculating the ED50 level of the cell-death inducing activity.
(In general: Tetrazolium dyes change colour on reduction, which living cells bring about.)

From patent US20060173069A1, “Therapeutic agent for hyperpotassemia and bone disease” (RIKEN, priority 2003, published 2006) come the findings set out here.

For `CCCC[C@@]1(OC)CC[C@]2(CC[C@H](C)[C@@H](C/C=C(C)/C=C/[C@H](O)[C@@H](C)/C=C/C(=O)O)O2)O[C@H]1/C=C/C(C)=C/C(=O)O` [Compound 1390-II], the EC50 in experiment [1] is greater than 5.2 µM.

Regarding `CCCC[C@@]1(OC(=O)CCC(=O)O)CC[C@]2(CC[C@H](C)[C@@H](C/C=C(C)/C=C/[C@@H](C)O)O2)O[C@H]1/C=C/C(C)=C/C(=O)OC` [Compound 25], the EC50 in experiment [1] is greater than 17 µM. Also, the CC50 in experiment [2] was greater than 17 µM.

On to `CCCC[C@@]1(OC(=O)CCC(=O)O)CC[C@]2(CC[C@H](C)[C@@H](CCO)O2)O[C@H]1/C=C/C(C)=C/C(=O)O` [Compound 3], for which the EC50 in experiment [1] was greater than 6 µM. Also, the CC50 in experiment [2] is greater than 6 µM.

`CCCC[C@@]1(OC(=O)CCC(=O)O)CC[C@]2(CC[C@H](C)[C@@H](C/C=C(C)/C=C/[C@H](O)[C@@H](C)/C=C/C(=O)OC)O2)O[C@H]1/C=C/C(C)=C/C(=O)O` [Compound 15]: the EC50 in experiment [1] turned out to be 5.8 µM. Moreover, in experiment [2], the CC50 came out at 25 µM.

For `CCCC[C@@]1(OC(=O)CCC(=O)O)CC[C@]2(CC[C@H](C)[C@@H](C/C=C(\C)CO)O2)O[C@H]1/C=C/C(C)=C/C(=O)O` [Compound 4], the EC50 in experiment [1] was greater than 5.6 µM. The CC50 in experiment [2] is greater than 5.6 µM.

With `CCCC[C@@]1(OC(=O)CCC(=O)O)CC[C@]2(CC[C@H](C)[C@@H](C/C=C(C)/C=C/[C@H](OC)[C@@H](C)/C=C/C(=O)O)O2)O[C@H]1/C=C/C(C)=C/C(=O)O` [Compound 26], the EC50 in experiment [1] is greater than 44 µM. The CC50 in experiment [2] was greater than 148 µM.

For the compound `CCCC[C@@]1(OC(=O)CCC(=O)OC)CC[C@]2(CC[C@H](C)[C@@H](C/C=C(C)/C=C/C(O)c3ccccc3)O2)O[C@H]1/C=C/C(C)=C/C(=O)OC` (stereo partly shown) [Compound 20], the EC50 in experiment [1] is greater than 45 µM. For the same compound, the CC50 in experiment [2] is greater than 150 µM.

Turning to `CCCC[C@@]1(OC(=O)CCC(=O)O)CC[C@]2(CC[C@H](C)[C@@H](C/C=C(C)/C=C/C(O)c3ccccc3)O2)O[C@H]1/C=C/C(C)=C/C(=O)OC` (stereo partly shown) [Compound 24], the EC50 in experiment [1] is greater than 15 µM. In addition, in experiment [2], the CC50 was greater than 15 µM.

Regarding `CCCC[C@@]1(O)CC[C@]2(CC[C@H](C)[C@@H](C/C=C(C)/C=C/[C@H](OC)[C@@H](C)/C=C/C(=O)OC)O2)O[C@H]1/C=C/C(C)=C/C(=O)OC` (mixture of isomers) [Compound 7], in experiment [1], the EC50 is greater than 51 µM. Further, the CC50 in experiment [2] was greater than 169 µM.

With `CCCC[C@@]1(O)CC[C@]2(CC[C@H](C)[C@@H](C/C=C(C)/C=C/[C@H](O)[C@@H](C)/C=C/C(=O)O)O2)O[C@H]1/C=C/C(C)=C/C(=O)O` (mixture of isomers) [Compound 11], in experiment [1], the EC50 was found to be 41 µM. For the same compound, the CC50 in experiment [2] is greater than 178 µM.

Turning to `CCCC[C@@]1(OC)CC[C@]2(CC[C@H](C)[C@@H](C/C=C/C(C)=C/C(=O)O)O2)O[C@H]1/C=C/C(C)=C/C(=O)O` [Compound 17], the EC50 in experiment [1] is greater than 61 µM.

With `CCCC[C@@]1(OC(=O)CCC(=O)O)CC[C@]2(CC[C@H](C)[C@@H](C/C=C(\C)COC(=O)CCC(=O)O)O2)O[C@H]1/C=C/C(C)=C/C(=O)O` [Compound 5], the EC50 in experiment [1] was greater than 47 µM. Moreover, the CC50 in experiment [2] is greater than 157 µM.

Regarding `CCCC[C@@]1(OC(=O)CCC(=O)O)CC[C@]2(CC[C@H](C)[C@@H](C/C=C(C)/C=C/[C@H](O)[C@@H](C)/C=C/C(=O)O)O2)O[C@H]1/C=C/C(C)=C/C(=O)OC` [Compound 22], in experiment [1], the EC50 turned out to be 9.3 µM. For the same compound, the CC50 in experiment [2] was 53 µM.

Take `CCCC[C@@]1(OC(=O)CCC(=O)O)CC[C@]2(CC[C@H](C)[C@@H](C/C=C(C)/C=C/[C@H](O)[C@@H](C)/C=C/C(=O)O)O2)O[C@H]1/C=C/C(C)=C/C(=O)O` [Reveromycin A, reveromycin A, reference compound]: the EC50 in experiment [1] was determined as 0.18 µM. Moreover, the CC50 in experiment [2] was 24 µM.

Regarding `CCCC[C@@]1(OC(=O)CCC(=O)O)CC[C@]2(CC[C@H](C)[C@@H](C/C=C(C)/C=C/C(C)O)O2)O[C@H]1/C=C/C(C)=C/C(=O)OC` (stereo partly shown) [Compound 23], in experiment [1], the EC50 was greater than 17 µM. In experiment [2], the CC50 is greater than 17 µM.
